Laboratory results as given in BindingDB's records for doi:10.1111/j.1747-0285.2005.00317.x (Abbott Laboratories, 2006).

Target: T1, UDP-N-acetylmuramoyl-tripeptide--D-alanyl-D-alanine ligase (Streptococcus pneumoniae (strain ATCC BAA-255 / R6), UniProt Q8DNV6)
T1 sequence (Q8DNV6 whole entry): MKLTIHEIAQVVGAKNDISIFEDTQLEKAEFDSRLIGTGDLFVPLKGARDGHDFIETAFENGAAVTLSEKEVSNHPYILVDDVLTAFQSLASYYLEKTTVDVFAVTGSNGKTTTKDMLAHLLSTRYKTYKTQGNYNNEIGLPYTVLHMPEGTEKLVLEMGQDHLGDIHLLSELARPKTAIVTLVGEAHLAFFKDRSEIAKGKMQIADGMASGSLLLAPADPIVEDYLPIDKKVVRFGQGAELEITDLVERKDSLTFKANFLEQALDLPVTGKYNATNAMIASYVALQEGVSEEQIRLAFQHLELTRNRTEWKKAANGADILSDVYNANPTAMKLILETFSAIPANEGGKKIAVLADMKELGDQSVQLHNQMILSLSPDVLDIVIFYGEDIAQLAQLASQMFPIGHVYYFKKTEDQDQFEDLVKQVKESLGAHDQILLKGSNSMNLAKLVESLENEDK
Assay: Inhibition Assay
Excerpt: Inhibition of D-Ala-D-Ala adding enzyme (MurF) from Streptococcus pneumoniase.

| SMILES | IC50 [µM] |
| --- | --- |
| N#Cc1c(NC(=O)c2cc(S(=O)(=O)C3CCOCC3)ccc2Cl)sc2c1CCC2 [MurF inhibitor, 3] | 9 |
| N#Cc1c(NC(=O)c2cc(S(=O)(=O)NCCCCO)ccc2Cl)sc2c1CCC2 [MurF inhibitor, 4] | 22 |
| N#Cc1c(NC(=O)c2cc(S(=O)(=O)N3CCCCC3)ccc2Cl)sc2c1CCCC2 [MurF inhibitor, 5] | 2.5 |
| N#Cc1c(NC(=O)c2cc(S(N)(=O)=O)ccc2Cl)sc2c1CCC2 [MurF inhibitor, 6] | 78 |
| CCN(CC)S(=O)(=O)c1ccc(Cl)c(C(=O)Nc2sccc2C#N)c1 [MurF inhibitor, 12] | 151 |
| CCN(CC)S(=O)(=O)c1ccc(Cl)c(C(=O)Nc2sc(Br)cc2C#N)c1 [MurF inhibitor, 13] | 12.6 |
| N#Cc1cc(CCc2ccccn2)sc1NC(=O)c1cc(S(=O)(=O)N2CCOCC2)ccc1Cl [MurF inhibitor, 14] | 6 |
| CCN(CC)S(=O)(=O)c1cc(C(=O)Nc2sc3c(c2C#N)CCC(c2ccc(O)cc2)C3)c(Cl)cc1Cl (stereo not drawn) [MurF inhibitor, 15] | 0.07 |
